Data from patent US12629368B2, “Use of N-(3-(4-(3-(diisobutylamino)propyl)piperazin-1-yl)propyl)-1H-benzo[d]imidazol-2-amine sulphate salts and solvates thereof for the treatment of motor neuron diseases and neuromuscular junction disorders” (ALZPROTECT, priority 2020, dated 2026).

How the values were obtained:
ALS [1] = settings: injected intravenously, small subset of people with ALS, phase 3; cited from earlier work
[2] = tested on: spinal cord/muscle neuromuscular junctions; experiment: Co-culture of human myoblasts and rat spinal cord explants injured with glutamate, neuromuscular junctions (Example 4); type: cell-based, human muscle cell line; settings: 300 nM, glutamate 60 μM 20 min, 48 h
[3] = tested on: rat primary motor neurons; experiment: Rat primary motor neurons injured with glutamate, 24 h pre-treatment + 24 h post-injury treatment (Example 2); type: cell-based
Description: (§1) Rat motor neurons (MN) were cultured as previously described by Martinou et al., Neuron. 1992, April; 8(4), 737-44 and Wang et al. Hum. Mol. Genet., 2013 Dec. 1; 22(23), 4706-19. Pregnant female rats of 14 days gestation (Rats Wistar; Janvier Labs France) were killed using a deep anesthesia with CO2 followed by cervical dislocation. Then, fetuses were removed from the uterus and immediately placed in ice-cold L15 Leibovitz medium with a 2% penicillin (10,000 U/mL) and streptomycin (10 mg/mL) solution (PS) and 1% bovine serum albumin (BSA). Spinal cords were treated for 20 min at 37° C. with a trypsin-Ethylenediaminetetraacetic acid (EDTA) solution at a final concentration of 0.05% trypsin and 0.02% EDTA. The dissociation was stopped by the addition of Dulbecco's modified Eagle's medium (DMEM) with 4.5 g/liter of glucose, containing DNAse I grade II (final concentration 0.5 mg/mL) and 10% fetal calf serum (FCS). Cells were mechanically dissociated by three forced passages through the tip of a […]. Cells were then centrifuged at 180×g for 10 min at +4° C. on a layer of BSA (3.5%) in L15 medium. The supernatant was discarded, and the pellet was resuspended in a defined culture medium consisting of Neurobasal medium with a 2% solution of B27 supplement, 2 mmol/liter of L-glutamine, 2% of PS solution, and 10 ng/mL of brain-derived neurotrophic factor (BDNF). Viable cells were counted in a Neubauer cytometer, using the trypan blue exclusion test. The cells were seeded at a density of 20,000 per well in 96-well plates (immunostaining) precoated with poly-L-lysine and cultured at 37° C. in an air (95%)-CO2 (5%) incubator. The medium was changed every 2 days. The motor neurons were injured with glutamate after 13 days of culture.
(§2) After 14 or 15 days of culture (48 h after the glutamate injury), the cell culture supernatant was collected and the spinal cord MNs were fixed by a cold solution of ethanol (95%) and acetic acid (5%) for 5 min at −20° C. After permeabilization with 0.1% of saponin, cells were blocked for 2 h with PBS containing 1% fetal calf serum. Then, cells were incubated with: • a) mouse monoclonal antibody anti-microtubule associated protein 2 (MAP-2) at dilution of 1/400 in PBS containing 1% fetal calf serum and 0.1% of saponin. This antibody binds specifically MAP-2 present in cell bodies and neurites of all MNs. […] Nuclei of neurons were labeled by a fluorescent marker (Hoechst solution). • b) Rabbit polyclonal antibody anti-TDP43 at dilution of 1/100 in PBS containing 1% fetal calf serum and 0.1% of saponin. Cytoplasmic localization of TDP43 was investigated.
All images were taken under the same conditions (exposition time, gain and laser intensity). Analysis of different endpoints, were automatically performed using Custom Module Editor (Molecular Devices). Motoneurons (MAP-2) were distinguished from interneurons (staining MAP-2) using the following morphological criteria: a cell body diameter […] and the presence of a minimum of three neuritic processes (Ferraiuolo et al. Brain 2011: 134; 2627-2641).
(§3) The endpoints were: • survival of MN (number of MN) • total neurite outgrowth of MN (expressed in μm) • TDP43 (extranuclear, eTDP43) in MN (expressed as area eTDP43-μm^2/number of MN) Statistical Analysis
The culture was carried out as described in example 1.
On day 12 of culture, primary motor neurons were treated with the sulphate salt for 24 hours. […]

[4] = tested on: primary culture of rat spinal motor neurons; experiment: Rat primary spinal motor neurons injured with glutamate, 48 h co-incubation (Example 1); type: cell-based; settings: 48 h incubation
Description: as §1
On day 13 of culture, glutamate was added to a final concentration of 5 μM diluted in control medium in presence of the sulphate salt for 20 min. After 20 min, glutamate was washed and fresh culture medium with the sulphate salt was added for 48 hours.
as §2
All images were taken under the same conditions (exposition time, gain and laser intensity). Analysis of different endpoints, were automatically performed using Custom Module Editor (Molecular Devices). […]
as §3
All values are expressed as mean+/−SEM. […]

[5] = tested on: SOD1^G93A Tg rat spinal cord motor neurons; experiment: Primary culture of SOD1G93A Tg rat spinal cord motor neurons injured with glutamate (Example 3); type: cell-based
Description: The day of the dissection (from pregnant females at 14 days of gestation), a piece of each embryo head (˜3 mm^3) was placed in a 2 mL tube free DNase with a new scalpel. The DNA was extracted with the SYBR Green Extract-N-Amp tissue PCR kit (Sigma Aldrich). Briefly, 120 μL of extraction solution was put on each piece of embryo heads. Then, they were incubated for 10 min at room temperature. At the end of this incubation period, the heads were incubated for 5 min at 95° C. Immediately after this last incubation, 100 μL of neutralizing solution was added; each DNA extract was diluted at 1/40 and stored at +4° C. until use. SOD1^G93A gene was determined using genomic fragment with human SOD1 primers (5′-[…]-3′; 5′-[…]-3′). The SOD1 primers were diluted at 3 μM in sterile ultrapure water. Briefly, a mix for PCR was prepared with ultrapure water (4 μL per sample), primer at 3 μM (2 μL per sample) and Master Mix (10 μL per sample). In a PCR 96 wells plate, 16 μL of PCR mix was added in each well. 4 μL of each diluted DNA was added according to a plan deposit.
Rat spinal cord (SC) motor neurons were cultured as described by Martinou et al., Neuron. 1992, April; 8(4), 737-44 and Wang et al. Hum. Mol. Genet., 2013 Dec. 1; 22(23), 4706-19. Pregnant female rats of 14 days of gestation were killed by cervical dislocation. Fetuses were collected and immediately placed in ice-cold L15 Leibovitz medium with a 2% penicillin (10,000 U/mL) and streptomycin (10 mg/mL) solution (PS) and 1% bovine serum albumin (BSA). Each fetus was dispatched on numerating petri dish (35 mm of diameter). Tail of fetuses were cut, placed on 1.5 ml tube free DNAase; the DNA was extracted with the Extract-N-Amp Tissue Kit.
The genotyping of SOD tg fetuses was performed with the kit Fast SYBR Green Master Mix. This genotyping was made during the dissection of spinal cord, thus at the end of the dissection culture of SOD Tg spinal cord and WT spinal cord was done. Spinal cords were removed and placed in ice-cold medium of Leibovitz (L15). SC were treated for 20 min at 37° C. with a trypsin-EDTA solution at a final concentration of 0.05% trypsin and 0.02% EDTA. The dissociation was stopped by addition of Dulbecco's modified Eagle's medium (DMEM) with 4.5 g/liter of glucose, containing DNAse I grade II (final concentration 0.5 mg/mL) and 10% fetal calf serum (FCS). Cells were mechanically dissociated by three forced passages through the tip of a 10-ml pipette. Cells were then centrifuged at 180×g for 10 min at +4° C. on a layer of BSA (3.5%) in L15 medium. […] Viable cells were counted in a Neubauer cytometer, using the trypan blue exclusion test. […]

ALS [6] = settings: oral drug, ALS patients; cited from earlier work
[7] = dose dependence, 5 μM glutamate 20 min, 48 h

CC1=NN(c2ccccc2)C(=O)C1 [Edavarone]
Decline of ALS Functional Rating Scale-Revised score compared with placebo (ALS [1]): significantly smaller decline

CC(C)CN(CCCN1CCN(CCCNc2nc3ccccc3[nH]2)CC1)CC(C)C.O=S(=O)(O)O.O=S(=O)(O)O [N-(3-(4-(3-(diisobutylamino)propyl)piperazin-1-yl)propyl)-1H-benzo[d]imidazol-2-amine di-sulphate]
Neuroprotective effect on neuromuscular junctions and neurite network against glutamatergic stress [2]: successfully protected the neuromuscular junctions and the neurite network
Number of NMJs [2]: increased
Total area of NMJs [2]: increased
Total neurite network [2]: increased
Effect on motor neuron survival compared to the glutamate condition ([3]; 3 nM to 30 nM, 24 h pre-incubation + 24 h post-injury): positive and significant effect on survival
Extranuclear TDP-43 (abnormal distribution) ([3]; 10 nM to 30 nM, glutamate alone eTDP-43 signal 128% of control): able to fully prevent the abnormal distribution of TDP-43
Neurite network integrity (mean length, percentage of control) ([3]; 30 nM (maximal effect), 24 h pre-incubation + 24 h post-injury): 91%
Motor neuron survival (mean survival, percentage of control) ([3]; 30 nM (maximal effect), 24 h pre-incubation + 24 h post-injury, glutamate alone 65%): 87%
Effect on neurite network (protection from glutamate damage) ([3]; all investigated doses, 24 h pre-incubation + 24 h post-injury): able to protect the neurite network from glutamate damage
Effect on motor neuron survival compared to the glutamate condition ([4]; 10 nM to 30 nM, 5 μM glutamate 20 min): positive and significant effect on survival
Neurite network integrity (mean length, percentage of control) ([4]; 30 nM (maximal effect), 5 μM glutamate 20 min): 80%
Motor neuron survival (mean survival, percentage of control) ([4]; 30 nM (maximal effect), 5 μM glutamate 20 min, glutamate alone 55%): 82%
Extranuclear TDP-43 (cytoplasmic accumulation) ([4]; 10 and 30 nM, 5 μM glutamate 20 min): able to prevent the accumulation of TDP-43 in the cytoplasm
Effect on neurite network after glutamate injury ([4]; all investigated doses): able to improve the neurite network after glutamate injury
Protective effects compared with Riluzole and Edaravone ([5]; 300 nM versus Riluzole 1 μM and Edaravone 5 μM): greater than those of Riluzole or Edaravone
Neuroprotection (number of MNs, neurite network, TDP-43 distribution) ([5]; all investigated doses, 5 μM glutamate 20 min, 48 h): neuroprotective
Protective effect on neuronal survival [5, 7]: dose-dependent
Protective effect on the distribution of TDP-43 [5, 7]: dose-dependent

Nc1nc2ccc(OC(F)(F)F)cc2s1 [Riluzole]
Effect on motor and respiratory functions (ALS [6]): no effect
